{
  "source": "patent US20100286762A1",
  "about": "“Compositions and Methods for Ameliorating Clinical Electrical Disturbances” (MUSC Foundation for Research Development, priority 2009, published 2010)",
  "key": {"cryoinjured mouse hearts [1]": {"system": "cryoinjured mouse hearts", "experiment": "Arrhythmia induction (S2-S3 premature beat protocol, overdrive pacing) in Langendorff-perfused hearts one week after cryoinjury", "assay_type": "in vivo", "description": "Following cryoinjury by application of 3 mm liquid nitrogen chilled probe hearts in anesthetized mice were treated with a methycellulose patch containing either ˜9 ug of ACT1 peptide, ˜9 ug of reverse control peptide or no peptide (vehicle control). Mice were then allowed to recover for a week. A week following the injury, Langherdorf-perfused hearts from the mice were subject to 2 types of electrical stimulation inducing arrhythmia: a) S2-S3 premature beat protocol and b) Overdrive pacing. Electrical recordings were made and induced arrhythmic behaviors were categorized including delayed after depolarizations, ectopic beats, ventricular tachycardia, and ventricular fibrillation. […] Severity was graded according to the electrical abnormality noted (e.g. ventricular tachycardia was scored lower than ventricular fibrillation) and the persistence of the electrical abnormality (e.g. intermittent tachycardia was scored lower than persistent tachycardia). […] A similar trend is seen in response to overdrive pacing, although in this case the difference between the treatment and controls are not significant at p=0.05. The “All control” group represents pooled reverse and vehicle control counts."}, "[2]": {"system": "neonatal rat ventricular myocytes (NVRMs) monolayers and NCRFs", "experiment": "Adherence of dispersed fibroblasts (NCRFs) to myocyte (NVRM) monolayers", "assay_type": "cell-based", "details": "48 hr timecourse", "description": "(§1) FIGS. 4A-4F show ZO-1 regulation of differential adhesion between Cx43 expressing cells. A. Segregation of Cx43-GFP cells from DiI-labeled HeLa Cx43 cells. […] C and D. Cohesion patterns of orange-tagged NVRMs from green-tagged NCRFs following control (top) or ACT1ACT1 (bottom) incubation. […] Scale A=5 um, C, D=25 um.\n(§2) In another approach neonatal rat ventricular myocytes (NVRMs) were cultured as monolayers and the propensity of added dispersed NCRFs to adhere to this layer was measured. […] In the second approach, green CellTracker-tagged fibroblasts are mixed with orange CellTracker-tagged myocytes and cultured as aggregates (FIG. 4C,D). […] Disclosed herein, and supported by the disclosed data, the regulation of connexon aggregation via ZO-1 PDZ2 can dynamically adjust the level of differential adhesivity between cells in heterocellular contacts (e.g., fibroblasts and myocytes)."}, "NVRM / NCRF aggregates": {"system": "NVRM / NCRF aggregates", "experiment": "Mixed aggregate culture of CellTracker-tagged fibroblasts and myocytes", "assay_type": "cell-based, rat", "details": "relative to control aggregates", "description": "as §1, §2"}, "[3]": {"system": "HeLa cells expressing wt Cx43", "experiment": "Scrape loading assay of GJ intercellular communication (GJIC)", "assay_type": "cell-based", "details": "relative to control and parental non-connexin expressing cells, p<0.05", "description": "It has been previously shown that inhibition of ZO-1 interaction with Cx43 increases GJ size in HeLa Cx43 and increases the proportion of Triton-insoluble-Cx43 in GJs, without altering Cx43 expression levels or turnover (Hunter et al., 2005). Based on this and other data, it was proposed that ZO-1 inhibits the transition from non-junctional and gap junctional Cx43 (Hunter et al. 2005). The question of where ZO-1 exerted this control to this point is unknown. Here, it is disclosed that ZO-1 regulates movement of connexons in the plasma membrane into GJs. FIG. 1 outlines how this works. The model disclosed herein predicts that inhibiting Cx43/ZO-1 interaction will result in an increase in GJ intercellular communication (GJIC) and a complementary decrease of free-membrane connexons. The well-characterized “scrape loading” technique was used to assess GJIC in HeLa cells expressing wt Cx43."}, "[4]": {"system": "Cx43 hemichannel in HeLa Cx43 cells", "experiment": "Connexon channel (hemichannel) function by EtdBr uptake in live cells", "assay_type": "cell-based", "description": "Functional and biochemical assays were used to assess whether the predicted reduction in free-membrane connexons occurs. First, connexon channel (hemichannel) function was assayed using EtdBr uptake in live cells as described by Saez and co-workers. […] In a variant of this experiment, the cells were also cultured at low density such that no GJs could form. Again consistent with the model, in the absence of GJs for free connexons in the membrane to be recruited to, ACT1 had no affect (FIG. 2)."}, "cryoinjured mouse hearts [5]": {"system": "cryoinjured mouse hearts", "details": "formulation applied coincident with cryo-infarction; 1 week following the injury; O'Quinn et al., Circulation, 2008; cited from earlier work"}, "[6]": {"details": "S2-S3 premature beat protocol, methycellulose patch ~9 ug peptide at cryoinjury, hearts tested a week later"}, "[7]": {"details": "overdrive pacing, methycellulose patch ~9 ug peptide at cryoinjury, hearts tested a week later"}},
  "note": "“Also recorded” adds a separate entry of the source.",
  "data": [
    {"substance": "ACT1: Cx43 CT sequence RPRPDDLEI (SEQ ID NO:1), can be attached to antennapedia sequence: RQPKIWFPNRRKPWKK RPRPDDLEI (SEQ ID NO3) (optionally antennapedia sequence; UniProt P17302 374-382, looked up, fragment)", "values": [
      {"measurement": "S2-S3 Protocol Arrhythmic (numbers of mice displaying an arrhythmia response)", "setting": "cryoinjured mouse hearts [1]; [6]", "result": 1},
      {"measurement": "S2-S3 Protocol Stable (numbers of mice)", "setting": "cryoinjured mouse hearts [1]; [6]", "result": 6},
      {"measurement": "Overdrive Pacing Arrhythmia (numbers of mice displaying an arrhythmia response)", "setting": "cryoinjured mouse hearts [1]; [7]", "result": 2},
      {"measurement": "Overdrive Pacing Stable (numbers of mice)", "setting": "cryoinjured mouse hearts [1]; [7]", "result": 5},
      {"measurement": "Arrhythmia Severity Index Mean", "setting": "cryoinjured mouse hearts [1]; severity graded by electrical abnormality and its persistence, patch ~9 ug peptide, a week after cryoinjury", "result": 1.71},
      {"measurement": "electrical stability in response to the S2-S3 arrhythmia induction protocol", "setting": "cryoinjured mouse hearts [1]; vs controls, chi squares p=0.05 or below", "result": "improved electrical stability"},
      {"measurement": "adherence of NCRFs to NVRM monolayers", "setting": "[2]", "result": "decreased the adherence"},
      {"measurement": "adherence of NCRFs to NVRM monolayers", "setting": "[2]; listed as ACT1ACT1", "result": "reduction in fibroblast (NCRF) adhesion"},
      {"measurement": "exclusion/loss of NCRFs from aggregates", "setting": "NVRM / NCRF aggregates", "result": "increased exclusion/loss of NCRFs"},
      {"measurement": "segregation of myocytes and fibroblasts in aggregates / cohesion index (% co-localization orange and green) of NVRMs", "setting": "NVRM / NCRF aggregates", "result": "tend to segregate into cohesive domains of like cells"},
      {"measurement": "exclusion/loss of NCRFs from aggregates", "setting": "NVRM / NCRF aggregates; listed as ACT1ACT1", "result": "Fibroblasts are excluded more"},
      {"measurement": "segregation of myocytes and fibroblasts in aggregates / cohesion index (% co-localization orange and green) of NVRMs", "setting": "NVRM / NCRF aggregates; listed as ACT1ACT1", "result": "is higher"},
      {"measurement": "GJ intercellular communication (GJIC)", "setting": "[3]", "result": "significantly increased GJIC"},
      {"measurement": "hemichannel activity (EtdBr uptake), cells at low density", "setting": "[4]; cells cultured at low density such that no GJs could form", "result": "no affect"},
      {"measurement": "hemichannel activity (EtdBr uptake)", "setting": "[4]; contacting HeLa Cx43 cells, relative to controls and non-connexin expressing HeLa cells, p<0.05", "result": "significantly decreases EtdBr uptake; also recorded: decreased hemichannel activity"},
      {"measurement": "arrhythmia susceptibility of heart after cryo-infarction to the ventricle", "setting": "cryoinjured mouse hearts [5]", "result": "renders the heart refractory to arrhythmia-inducing electrophysiological protocols"}
    ]}
  ]
}
